Measurements reported in patent US7119113B2, “Oxazoles as mGluR1 enhancers” (Hoffmann-La Roche Inc., priority 2002, dated 2006).

Key:
[1] = Microsome incubation, human liver microsomes (metabolic stability); assay type: in vitro ADME; conditions: for MAB (human): maximal achievable bioavailability = 1−E (hepatic extraction ratio), extrapolated from human microsomal clearance; for microsomal CLint at 10 μM: pH 7.4, human liver microsomes 2.0 mg prot/mL, test compound 10 μM, 37° C., NADPH regenerating system, calculated from in vitro half-life, read-out: Intrinsic clearance (human)
Description: (§1) The compounds of formula I of the present invention are further characterized by high metabolic stability. This parameter is a prerequisite for good bioavailability, which is necessary to obtain medicaments with acceptable in-vivo activity. The metabolic stability has been tested by the following method:
(§2) Incubation mixtures consisted of liver microsomes (rat 1.0 mg prot/mL or human 2.0 mg prot/mL), test compound 10 μM, MgCl2 (3.3 mM), and an NADPH regenerating system consisting of glucose-6-phosphate dehydrogenase, NADPH and glucose-6-phosphate (equivalent to 1 mM NADPH) in a total volume of 1.0 mL of potassium phosphate buffer 100 mM pH 7.4. Reactions were initiated by addition of the NADPH regenerating system at 37° C. At the time of 1, 5, 9, 13, 17, 21, 25, and 29 min a 5 μL aliquot was directly analysed on a HPLC-MS/MS system consisting of a HP 1100 quaternary pump with degasser and a PE-Sciex API-2000 MS/MS spectrometer. The analytical column was a Waters Symmetry Shield RP8 (2.1*50 mm with a […] particle size). A polarity non linear gradient from phase A (MeOH/Ac. Form.1% 20/80) to phase B (MeOH) was applied for a total run time of 2 minutes at a flow rate of 0.25 mL/min. The PE-Sciex API-2000 MS/MS spectrometer was used for detection of the parent compound. In vivo metabolic clearance was predicted according to published procedures [Houston, Biochem. Pharmacol. 47:1469–1479 (1994)]. In brief, the intrinsic clearance (Clearance, see table below) is calculated from the measured in vitro half-life taking into account incubation volume and microsomal protein used for the in vitro incubation. The intrinsic clearance is expressed in terms of μl/min/mg microsomal protein. For in vivo extrapolations, the hepatic extraction ratio (E) was calculated. Here it is reported the % MAB value which is equal to 1−E. The MAB (maximal achievable bioavailability) values express the maximal bioavailability that one can achieve with the given clearance values.

[2] = Microsome incubation, rat liver microsomes (metabolic stability); assay type: in vitro ADME; conditions: for MAB (rat): maximal achievable bioavailability = 1−E (hepatic extraction ratio), extrapolated from rat microsomal clearance; for microsomal CLint at 10 μM: pH 7.4, rat liver microsomes 1.0 mg prot/mL, test compound 10 μM, 37° C., NADPH regenerating system, calculated from in vitro half-life, read-out: Intrinsic clearance (rat)
Description: as §1, §2

rat mGlu 1a receptor = molecular target: T1, rat mGlu 1a receptor (Rattus norvegicus, UniProt P23385); assay: [Ca2+]i measurement (FLIPR) on mGlu 1a transfected EBNA cells (headed "Binding Assay"); assay type: cell-based; conditions: rat mGlu 1a transiently transfected EBNA cells, Fluo-3 AM, activation (agonist) curves
T1 construct: expressed in transfected cells; host or cells: EBNA cells (transient transfection)
Description: The compounds of the present invention are group I mGlu receptor agonists. The compounds show activities, as measured in the below binding assay, of 0.2 μM or less.
cDNA encoding rat mGlu 1a receptor obtained from Prof. S. Nakanishi (Kyoto, Japan) was transiently transfected into EBNA cells using a procedure described by Schlaeger et al, New Dev. New Appl. Anim. Cell Techn., Proc. ESACT Meet., 15, (1998), 105–112 and 117–120. [Ca^2+]i measurements were performed on mGlu 1a transfected EBNA cells after incubation of the cells with Fluo-3 AM (0.5 μM final concentration) for 1 hour at 37° C. followed by 4 washes with assay buffer (DMEM supplemented with Hank's salt and 20 mM HEPES. [Ca^2+]i measurements were done using a fluorometric imaging plate reader (FLIPR, Molecular Devices Corporation, La Jolla, Calif., USA). When compounds were evaluated as antagonists they were tested against 10 μM glutamate as agonist.
The activation (agonists) curves were fitted with a four parameter logistic equation giving EC50, and Hill coefficient using the iterative non linear curve fitting software Origin (Microcal Software Inc., Northampton, Mass., USA).
In the table below are shown specific EC50 values of compounds of formula I: […]

T1 sequence (P23385 19-1199): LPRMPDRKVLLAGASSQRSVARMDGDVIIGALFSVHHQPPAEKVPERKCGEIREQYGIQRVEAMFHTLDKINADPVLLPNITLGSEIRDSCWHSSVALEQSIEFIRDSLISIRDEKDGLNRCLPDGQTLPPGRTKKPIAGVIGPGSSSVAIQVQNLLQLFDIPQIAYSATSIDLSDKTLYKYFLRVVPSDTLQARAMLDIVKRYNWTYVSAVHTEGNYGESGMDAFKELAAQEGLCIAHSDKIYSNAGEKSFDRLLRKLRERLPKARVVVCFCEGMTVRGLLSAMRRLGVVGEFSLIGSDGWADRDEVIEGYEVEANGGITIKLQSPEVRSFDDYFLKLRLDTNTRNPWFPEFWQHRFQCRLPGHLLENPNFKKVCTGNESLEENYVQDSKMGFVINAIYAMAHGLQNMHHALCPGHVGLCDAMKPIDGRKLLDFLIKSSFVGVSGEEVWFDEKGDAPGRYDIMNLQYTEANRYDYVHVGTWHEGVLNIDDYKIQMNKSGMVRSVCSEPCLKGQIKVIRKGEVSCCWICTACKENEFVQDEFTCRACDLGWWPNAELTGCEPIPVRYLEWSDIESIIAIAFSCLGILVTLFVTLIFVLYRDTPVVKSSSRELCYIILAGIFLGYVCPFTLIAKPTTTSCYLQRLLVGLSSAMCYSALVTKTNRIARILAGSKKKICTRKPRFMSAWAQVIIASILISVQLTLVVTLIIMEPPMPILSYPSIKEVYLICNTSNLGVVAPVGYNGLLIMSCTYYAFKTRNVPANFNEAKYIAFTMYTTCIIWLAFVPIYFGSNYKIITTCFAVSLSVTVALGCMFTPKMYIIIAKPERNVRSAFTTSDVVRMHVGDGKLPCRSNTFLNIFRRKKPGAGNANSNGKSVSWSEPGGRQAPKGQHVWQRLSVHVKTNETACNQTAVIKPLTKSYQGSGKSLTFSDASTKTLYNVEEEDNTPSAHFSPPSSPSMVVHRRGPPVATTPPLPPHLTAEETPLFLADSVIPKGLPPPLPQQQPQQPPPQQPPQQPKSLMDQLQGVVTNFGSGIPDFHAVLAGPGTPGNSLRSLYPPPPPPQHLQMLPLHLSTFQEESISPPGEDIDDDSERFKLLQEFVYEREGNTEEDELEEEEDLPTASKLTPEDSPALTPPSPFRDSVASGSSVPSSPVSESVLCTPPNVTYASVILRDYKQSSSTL

| SMILES | MAB (human) [1] [%] | microsomal CLint at 10 μM [1] [µL/min/mg] | melting point [°C] | MAB (rat) [2] [%] | microsomal CLint at 10 μM [2] [µL/min/mg] | EC50 (rat mGlu 1a receptor) [nM] |
| --- | --- | --- | --- | --- | --- | --- |
| O=C(Nc1nc(C(F)(F)F)co1)C1c2ccccc2Oc2ccc(F)cc21 (racemic) [Example 3, (RS)-2-Fluoro-9H-xanthene-9-carboxylic Acid (4-trifluoromethyl-oxazol-2-yl)-amide] | 61 | 9.9 | 241 | 32 | 61.4 | 55 |
| O=C(Nc1nc(C(F)(F)F)co1)C1c2ccccc2Oc2c(Cl)cccc21 (racemic) [Example 14, (RS)-4-Chloro-9H-xanthene-9-carboxylic Acid (4-trifluoromethyl-oxazol-2-yl)-amide] |  |  | 212 |  |  | 93 |
| O=C(Nc1ncc(C(F)(F)F)o1)C1c2ccccc2Oc2ccccc21 [Example 2, 9H-Xanthene-9-carboxylic Acid (5-trifluoromethyl-oxazol-2-yl)-amide] | 68 | 14 | 218 | 37 | 50 | 38 |
| O=C(Nc1nc(C(F)(F)F)co1)C1c2ccccc2Oc2c(F)cccc21 (racemic) [Example 7, (RS)-4-Fluoro-9H-xanthene-9-carboxylic Acid (4-trifluoromethyl-oxazol-2-yl)-amide] | 67 | 7.9 | 233 | 48 | 32.8 | 16 |
| O=C(Nc1ncc(C(F)(F)F)o1)C1c2ccccc2Oc2c(F)cccc21 (racemic) [Example 8, (RS)-4-Fluoro-9H-xanthene-9-carboxylic Acid (5-trifluoromethyl-oxazol-2-yl)-amide] | 45 | 19.2 | 228 | 49 | 31.8 | 21 |
| O=C(Nc1nc(C(F)(F)F)co1)C1c2ccccc2Oc2cc(F)ccc21 (racemic) [Example 5, (RS)-3-Fluoro-9H-xanthene-9-carboxylic Acid (4-trifluoromethyl-oxazol-2-yl)-amide] | 78 | 4.3 | 221 | 46 | 34.3 | 40 |
| O=C(Nc1nc(C(F)(F)F)co1)C1c2ccccc2Oc2ccc(Cl)cc21 (racemic) [Example 13, (RS)-2-Chloro-9H-xanthene-9-carboxylic Acid (4-trifluoromethyl-oxazol-2-yl)-amide] |  |  | 235 |  |  | 15 |
| O=C(Nc1nc(C(F)(F)F)co1)C1c2ccc(F)cc2Oc2cc(F)ccc21 [Example 11, 3,6-Difluoro-9H-xanthene-9-carboxylic Acid (4-trifluoromethyl-oxazol-2-yl)-amide] | 59 | 11.1 | 265 | 63 | 17.6 | 3 |
| O=C(Nc1nc(C(F)(F)F)co1)C1c2cc(F)ccc2Oc2ccc(F)cc21 [Example 9, 2,7-Difluoro-9H-xanthene-9-carboxylic Acid (4-trifluoromethyl-oxazol-2-yl)-amide] | 85 | 2.7 | 259 | 77 | 8.9 | 44 |
| O=C(Nc1ncc(C(F)(F)F)o1)C1c2ccc(F)cc2Oc2cc(F)ccc21 [Example 12, 3,6-Difluoro-9H-xanthene-9-carboxylic Acid (5-trifluoromethyl-oxazol-2-yl)-amide] | 63 | 9.1 | 249 | 72 | 11.6 | 25 |
| O=C(Nc1ncc(C(F)(F)F)o1)C1c2ccccc2Oc2ccc(F)cc21 (racemic) [Example 4, (RS)-2-Fluoro-9H-xanthene-9-carboxylic Acid (5-trifluoromethyl-oxazol-2-yl)-amide] | 45 | 18.8 | 217 | 43 | 40.2 | 20 |
| O=C(Nc1ncc(C(F)(F)F)o1)C1c2ccccc2Oc2cc(F)ccc21 (racemic) [Example 6, (RS)-3-Fluoro-9H-xanthene-9-carboxylic Acid (5-trifluoromethyl-oxazol-2-yl)-amide] | 63 | 9.2 | 250 | 52 | 27.8 |  |
| O=C(Nc1nc(C(F)(F)F)co1)C1c2ccccc2Oc2ccccc21 [Example 1, 9H-Xanthene-9-carboxylic acid (4-trifluoromethyl-oxazol-2-yl)-amide] | 68 | 8 |  | 25 | 108 | 56 |
| O=C(Nc1ncc(C(F)(F)F)o1)C1c2cc(F)ccc2Oc2ccc(F)cc21 [Example 10, 2,7-Difluoro-9H-xanthene-9-carboxylic Acid (5-trifluoromethyl-oxazol-2-yl)-amide] | 73 | 5.6 | 232 | 54 | 26.1 | 124 |
